Experimental data from PMC12133300, “The C-terminal structure of the N^6-methyladenosine deaminase YerA and its role in deamination” (Biochemical Journal, 2025).

Tests used:
YerA (Bsu06560) [1] = biological target: T1, YerA (Bsu06560) (Bacillus subtilis, UniProt O34909); assay: thermal shift assay (SYPRO Orange); type: binding; details: apo-YerA (without metal reconstitution) 15 uM, 3 mM ligand
T1 construct: full-length (Met1-Arg580), pET-28a(+), E. coli BL21(DE3), N-terminal His-tag cleaved by PreScission protease; monomer; assayed as apo or metal-reconstituted form
T1 sequence (O34909 whole entry): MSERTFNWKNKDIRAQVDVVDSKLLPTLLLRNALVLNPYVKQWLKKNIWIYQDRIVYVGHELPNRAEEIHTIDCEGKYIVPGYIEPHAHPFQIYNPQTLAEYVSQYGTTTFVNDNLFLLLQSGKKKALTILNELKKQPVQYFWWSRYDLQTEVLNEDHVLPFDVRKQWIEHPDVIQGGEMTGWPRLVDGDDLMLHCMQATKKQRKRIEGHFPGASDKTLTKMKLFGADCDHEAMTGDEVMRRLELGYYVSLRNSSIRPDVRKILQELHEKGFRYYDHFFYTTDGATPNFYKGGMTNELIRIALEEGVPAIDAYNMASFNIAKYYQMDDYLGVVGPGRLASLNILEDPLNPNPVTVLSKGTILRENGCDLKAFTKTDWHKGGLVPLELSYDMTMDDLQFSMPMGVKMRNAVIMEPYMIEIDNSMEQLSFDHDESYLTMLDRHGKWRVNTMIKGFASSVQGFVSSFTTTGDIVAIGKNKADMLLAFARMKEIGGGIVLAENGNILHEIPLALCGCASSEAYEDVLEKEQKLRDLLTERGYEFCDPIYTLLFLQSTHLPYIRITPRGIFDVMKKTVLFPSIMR

YerA (Bsu06560) [2] = biological target: T1, YerA (Bsu06560); assay: LC-Q-TOF-MS detection of inosine product; type: biochemical; details: metal-reconstituted holoenzyme, 5 h, 37 °C, 5 mM ligand; apo form without reconstitution inactive

CNc1ncnc2c1ncn2[C@@H]1O[C@H](CO)[C@@H](O)[C@H]1O [N^6-mAdo, N^6-methyladenosine]
Tm shift (YerA (Bsu06560) [1]): 3 °C
LC-Q-TOF-MS detection of inosine product (YerA (Bsu06560) [2]): YerA deaminated the favored substrate N^6-mAdo to Ino after a 5-h reaction
